Experimental data: PubChem BioAssay AID1963833 (Molecular Pharmacology Branch, DTP, NCI, 2024)
Where “and” joins values, the source holds several entries; their conditions need not be identical. Equal entries are not always repeated.

Tested on: 883617-216-R-J1-PDC complex spheroid viability
Assay: Anticancer human tumor 883617-216-R-J1-PDC patient-derived bladder carcinoma cell line growth inhibition [POLQ]
Settings: for viability, T/C: stronger effect = lower value
Method: Multicellular complex tumor spheroid response to Polymerase (POL) inhibitors (novobiocin, ART-558, RP6685) in combination with a variety of drugs and investigational agents in selected tumor cell lines
The POL inhibitors (novobiocin, ART-558, and RP6685) were evaluated both individually and in combination with standard of care and investigational anticancer small molecules within a complex spheroid model of solid tumors. . Complex spheroids include a stromal component modeled by human endothelial cells (HUVEC) and fibroblasts modeled by human mesenchymal stem cells (MSCs). The concentration ranges selected for each drug and investigational agent were based upon clinically achievable concentrations if the clinical Cmax of the agent was known.
Compounds. The drugs and investigational agents: novobiocin (NSC847541), ART-558 (NSC835418), RP-6685 (NSC848927), peposertib (NSC802822), ceralasertib (NSC780249), elimusertib (NSC800525), camonsertib (NSC841442), AZD-1390 (NSC803789), olaparib (NSC753686), talazoparib (NSC767125), rucaparib (NSC756644), sotorasib (NSC818433), MRTX-1133 (NSC836407), SN-38 (NSC673596), topotecan (NSC609699), epotoside (NSC141540), doxorubicin (NSC123127), gemcitabine (NSC613327), 5-fluorouracil (NSC19893), paclitaxel (NSC125973), vemurafenib (NSC761431), MSA-2 (NSC828583), SN-011 (NSC837082), adavosertib (NSC754352), prexasertib (NSC758257), carboplatin (NSC241240) and oxaliplatin (NSC266046), were obtained from the National Cancer Institute (NCI) Developmental Therapeutics Program Chemical Repository (21). The FDA-approved anticancer drug set is available from the Developmental Therapeutics Program at https://dtp.cancer.gov/organization/dscb/obtaining/. […] The stock solutions were prepared in dimethyl sulfoxide (DMSO, Sigma-Aldrich, St. Louis, MO, cat. D2650), except for the platinum compounds which were prepared in saline (Quality Biological, Gaithersburg, MD, cat. 114-055-101), at 800-fold the tested concentration and stored at -70 degrees C prior to their use. All drugs and investigational agents were tested over a range starting from a high concentration at or near the clinical Cmax and decreasing in half-log increments. If the clinical Cmax for an agent had not been determined, the highest concentration tested was 10 microM, except for SN-38, which was tested at a high concentration of 1 microM.
Cell Culture. All cells were maintained in an incubator at 37 degrees C and 5% CO2 with 95% humidity. The PDC lines were cultured according to standard operating procedures established by the NCI PDMR (https://pdmr.cancer.gov). Table 3 of the manuscript, lists the cell lines along with the number of the three cell types plated to form the mct-spheroids and media for tumor cell growth. After thawing, all PDC lines, except 997537-175-T-J1-PDC and 415267-285-R-J2-PDC, were cultured in Matrigel-coated flasks prepared with a working solution of 1X Ham's F-12 nutrient mix, without supplementation (Thermo Fisher Scientific, cat. 11765054), 100 U/mL penicillin-streptomycin (Thermo Fisher Scientific, cat. 15140122), and 2.5% Matrigel (Corning Inc., Corning, NY, cat. 354248) for the first three passages. The two PDC lines 997537-175-T-J1-PDC and 415267-285-R-J2-PDC were cultured on uncoated flasks. The 857933-349-R-J2-PDC line was cultured in 6C/Colon 1B media containing advanced DMEM/F-12 (Thermo Fisher Scientific, cat. 12634028), 10 mM HEPES (Thermo Fisher Scientific, cat. 15630080), 1X GlutaMAX supplement (Thermo Fisher Scientific, cat. 35050061), 0.1 mg/mL primocin (InvivoGen, San Diego, CA, cat. ant-pm-2), 10% defined fetal bovine serum, heat inactivated (HyClone Laboratories Inc., Logan, UT, cat. SH30070.03HI), 50% L-WRN conditioned media (ATCC, cat. CRL-3276), 1.25 mM N-Acetyl-L-cysteine (Sigma-Aldrich, cat. A9165), 10 mM nicotinamide (Sigma-Aldrich, cat. N0636), 1X B-27 supplement (Thermo Fisher Scientific, cat. 17504044), 1X N-2 supplement (Thermo Fisher Scientific, cat. […]
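Note: spheroids exposed to compounds for seven days before readout.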
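Throughout, for viability, T/C: 100% = DMSO vehicle control viability.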

Compound: CCc1cc2c(N3CCc4c(cc(Cn5ccnc5)cc4-c4cn(C)nc4C(F)(F)F)C3=O)ccnc2c(OC)n1 + Nc1ccc(C#CCN(C(=O)Cc2ncc(C(F)(F)F)cc2C(F)(F)F)c2ccc(F)cc2)nn1
- IC50 (curve of first compound, second compound 0.0316 µM): 9570 nM
- IC50 (curve of first compound, second compound 0.1 µM): 9930 nM
- IC50 (curve of first compound, second compound 0.316 µM): > 10000 nM
- IC50 (curve of first compound, second compound 1 µM): > 10000 nM
- IC50 (curve of first compound, second compound 3.16 µM): > 10000 nM
- IC50 (curve of first compound, second compound 10 µM): > 10000 nM
- viability, T/C (second compound 0.0316 µM, first compound 0.0316 µM): 109%
- viability, T/C (second compound 0.0316 µM, first compound 0.1 µM): 97.5%
- viability, T/C (second compound 0.0316 µM, first compound 0.316 µM): 91.4%
- viability, T/C (second compound 0.0316 µM, first compound 1 µM): 104%
- viability, T/C (second compound 0.0316 µM, first compound 3.16 µM): 80.4%
- viability, T/C (second compound 0.0316 µM, first compound 10 µM): 48.8%
- viability, T/C (second compound 0.1 µM, first compound 0.0316 µM): 91.1%
- viability, T/C (second compound 0.1 µM, first compound 0.1 µM): 109%
- viability, T/C (second compound 0.1 µM, first compound 0.316 µM): 103%
- viability, T/C (second compound 0.1 µM, first compound 1 µM): 105%
- viability, T/C (second compound 0.1 µM, first compound 3.16 µM): 86%
- viability, T/C (second compound 0.1 µM, first compound 10 µM): 49.8%
- viability, T/C (second compound 0.316 µM, first compound 0.0316 µM): 98.8%
- viability, T/C (second compound 0.316 µM, first compound 0.1 µM): 107%
- viability, T/C (second compound 0.316 µM, first compound 0.316 µM): 102%
- viability, T/C (second compound 0.316 µM, first compound 1 µM): 91.1%
- viability, T/C (second compound 0.316 µM, first compound 3.16 µM): 84.8%
- viability, T/C (second compound 0.316 µM, first compound 10 µM): 59%
- viability, T/C (second compound 1 µM, first compound 0.0316 µM): 95.6%
- viability, T/C (second compound 1 µM, first compound 0.1 µM): 104%
- viability, T/C (second compound 1 µM, first compound 0.316 µM): 97.9%
- viability, T/C (second compound 1 µM, first compound 1 µM): 94.9%
- viability, T/C (second compound 1 µM, first compound 3.16 µM): 88.9%
- viability, T/C (second compound 1 µM, first compound 10 µM): 61%
- viability, T/C (second compound 3.16 µM, first compound 0.0316 µM): 109%
- viability, T/C (second compound 3.16 µM, first compound 0.1 µM): 97.7%
- viability, T/C (second compound 3.16 µM, first compound 0.316 µM): 110%
- viability, T/C (second compound 3.16 µM, first compound 1 µM): 102%
- viability, T/C (second compound 3.16 µM, first compound 3.16 µM): 82.3%
- viability, T/C (second compound 3.16 µM, first compound 10 µM): 69.6%
- viability, T/C (second compound 10 µM, first compound 0.0316 µM): 105%
- viability, T/C (second compound 10 µM, first compound 0.1 µM): 99.6%
- viability, T/C (second compound 10 µM, first compound 0.316 µM): 107%
- viability, T/C (second compound 10 µM, first compound 1 µM): 108%
- viability, T/C (second compound 10 µM, first compound 3.16 µM): 82.9%
- viability, T/C (second compound 10 µM, first compound 10 µM): 57.8%

Compound: CC(=O)O[C@H]1C(=O)[C@@]2(C)[C@H]([C@H](OC(=O)c3ccccc3)[C@]3(O)C[C@H](OC(=O)[C@H](O)[C@@H](NC(=O)c4ccccc4)c4ccccc4)C(C)=C1C3(C)C)[C@]1(OC(C)=O)CO[C@@H]1C[C@@H]2O
- viability, T/C (compound 0.00949 µM): 44.9% and 57% and 43.1%
- viability, T/C (compound 0.03 µM): 32.5% and 35.8% and 26.7%
- viability, T/C (compound 0.0949 µM): 22.9% and 26.7% and 15.8%
- viability, T/C (compound 0.3 µM): 30.6% and 21.1% and 24.6%
- viability, T/C (compound 0.949 µM): 28.4% and 23.5% and 25.1%
- viability, T/C (compound 3 µM): 26.5% and 19.3% (2×)
- IC50 (curve of compound): < 9.49 nM and 13.9 nM

Compound: COc1ccc([C@@H](O)c2cc(-c3ncnc4cc(N5CCOCC5)ccc34)c(F)cc2Cl)nn1
- viability, T/C (compound 0.0316 µM): 99% and 86.7% and 96.3%
- viability, T/C (compound 0.1 µM): 73% and 81.7% and 93.3%
- viability, T/C (compound 0.316 µM): 81.5% and 83.3% and 94%
- viability, T/C (compound 1 µM): 62.8% and 61.7% and 69%
- viability, T/C (compound 3.16 µM): 48.3% and 47.9% and 48.8%
- viability, T/C (compound 10 µM): 30.1% and 35.8% and 31.2%
- IC50 (curve of compound): 2610 nM and 2430 nM and 2720 nM

Compound: Cn1ncnc1[C@H]1c2n[nH]c(=O)c3cc(F)cc(c23)N[C@@H]1c1ccc(F)cc1
- viability, T/C (compound 0.000316 µM): 94.7% and 100% and 90.6%
- viability, T/C (compound 0.001 µM): 85.8% and 100% and 85.9%
- viability, T/C (compound 0.00316 µM): 87.6% and 95.6% and 95.1%
- viability, T/C (compound 0.01 µM): 83.5% and 90% and 77.4%
- viability, T/C (compound 0.0316 µM): 70% and 80.9% and 83.5%
- viability, T/C (compound 0.1 µM): 65.7% and 71.8% and 69.7%
- IC50 (curve of compound): > 100 nM

Compound: O=C(c1cc(Cc2n[nH]c(=O)c3ccccc23)ccc1F)N1CCN(C(=O)C2CC2)CC1
- viability, T/C (compound 0.0316 µM): 88.1% and 93% and 83.1%
- viability, T/C (compound 0.1 µM): 82.1% and 100% and 97.3%
- viability, T/C (compound 0.316 µM): 92.3% and 104% and 81.8%
- viability, T/C (compound 1 µM): 87.4% and 87.5% and 87.9%
- viability, T/C (compound 3.16 µM): 91% and 82.4% and 88.4%
- viability, T/C (compound 10 µM): 58.5% and 61.9% and 69.8%
- IC50 (curve of compound): > 10000 nM

Compound: CC1COCCN1c1cc(C2(O)CC3CCC(C2)O3)c2cnn(-c3ccn[nH]3)c2n1 (centres undefined)
- viability, T/C (compound 0.0316 µM): 73.6% and 75.5% and 72.3%
- viability, T/C (compound 0.1 µM): 55.3% and 49.3% and 45.5%
- viability, T/C (compound 0.316 µM): 50.6% and 44.3% and 45.2%
- viability, T/C (compound 1 µM): 30.4% and 30% and 34.4%
- viability, T/C (compound 3.16 µM): 23.1% and 26.1% and 31%
- viability, T/C (compound 10 µM): 22.6% and 20.5% and 20.6%
- IC50 (curve of compound): 213 nM and 137 nM and 135 nM

Compound: Nc1ccn(C2OC(CO)C(O)C2(F)F)c(=O)n1 (centres undefined)
- viability, T/C (compound 0.0316 µM): 32.7% and 33% and 32.6%
- viability, T/C (compound 0.1 µM): 30.6% and 36.1% and 29.3%
- viability, T/C (compound 0.316 µM): 32.9% and 36.7% and 46.2%
- viability, T/C (compound 1 µM): 39.7% and 42.4% and 33.9%
- viability, T/C (compound 3.16 µM): 36.2% and 41.4% and 31.7%
- viability, T/C (compound 10 µM): 26.8% and 42.1% and 30.9%
- IC50 (curve of compound): < 31.6 nM
